system: miR-124; assay: Up-regulation of miR-124 in CD3/CD28 antibody-activated T cells (SYBR green quantitative PCR); type: cell-based; settings: T-cell, 72 h; activated human T cells, 1 μM compound, 3 days, relative to DMSO, U6 internal reference
Protocol: The effect of the compound on miR-124 expression levels was detected in CD3/CD28 antibody-activated T cells. After the activated T cells were treated with the compound, the total cellular RNA was extracted, the cDNA obtained from reverse transcription was used as a template, and quantification was performed by an SYBR green fluorescence quantitative PCR method using a specific miR-124 primer.
Isolation of T cells: Purchased human peripheral blood mononuclear cells (PBMCs) were counted, centrifuged, and washed once with a separation buffer (PBS, pH 7.4, containing 0.5% BSA and 2 mM EDTA), and the supernatant was discarded. The components were added in an amount of 40 μL of a buffer and 10 μL of pan T Cell Biotin-Antibody Cocktail per 1×10^7 cells, and the pellet was resuspended. The resulting suspension was mixed and incubated in a refrigerator at 4° C. for 5 min. After the incubation was completed, the components were added in an amount of 30 μL of a buffer and 20 μL of Pan T Cell MicroBeads Cocktail per 1×10^7 cells, and the resulting suspension was mixed and incubated in a refrigerator at 4° C. for 10 min. The separation column (LS column) was rinsed with 3 mL of a cell separation buffer in advance, loaded with the above cell suspension, and then repeatedly washed 3 times with 1 mL of the cell separation buffer. The effluent cell fluid was collected in a 15 mL centrifuge tube, thus giving the enriched T cells. The cells were counted and added at a density of 1×10^6 cells/mL to an RPMI1640 medium (complete medium) containing 10% FBS and 40) U/mL IL-2, and the resulting mixture was kept on ice for later use.
Activation of T cells: The corresponding Dynabead Human T-Activator CD3/CD28 for T Cell Expansion and Activation were added to a 1.5 mL centrifuge tube in an amount of 25 μL of the activated magnetic beads per 1×10^6 cells, which should be shaken on a shaker for about 30 s before aspiration. In the centrifuge tube, at a volume ratio of greater than 1:1, the activated magnetic beads were washed 3 times with a medium, and all the washing liquid was removed after the last washing. A complete medium with a volume equal to the starting volume was added to resuspend the activated magnetic beads. The washed activated magnetic beads were added to the cell resuspension, and the resulting mixture was well mixed. The cells were added to a six-well plate at 3 mL/well and incubated in a cell incubator at 37° C. with 5% CO2 for 2 days.
Compound treatment: A 20 mM compound stock solution was diluted to 200 μM with DMSO, and then diluted 4-fold to 50 μM (50)×) with a complete medium. The resulting mixture was well mixed for later use. 4-fold diluted DMSO (25% DMSO) was added to negative control wells. T cells were activated for two days and pipetted uniformly. The 1.5 mL centrifuge tube was mounted on a magnetic rack, and the activated magnetic beads were removed. The cell suspension was collected, and the cells were counted and then centrifuged at 300×g for 10 min to discard the supernatant. The cells were then resuspended to 1.02×10^6 cells/mL, and 980 μL of the cell suspension and 20 μL of the 50× compound were added to each 24-well plate, with the final concentration of the compound being 1 μM. The cells were placed in a cell incubator at 37° C. with 5% CO2 for another 3 days.
RNA extraction: T cells were collected by centrifugation at 1500 rpm for 3 min, washed once with PBS, and centrifuged again to discard the supernatant. The total cellular RNA was extracted using a microRNA extraction kit according to the package insert. 700 μL of a Trizol cell lysis buffer was added to the cell pellet, and the resulting mixture was pipetted uniformly and left at room temperature for 5 min. 140 μL of chloroform was added, and the resulting mixture was well mixed with shaking and left to stand at room temperature for 3 min. The chloroform-cell lysis buffer mixture was centrifuged at 12000×g and 4° C. for 15 min. […]

SMILES	fold induction at 1 µM
Clc1cccc2ccc(Nc3ccc4c(c3)CCO4)nc12 [Compound 3, 8-Chloro-N-(2,3-dihydrobenzofuran-5-yl)quinolin-2-amine]	5.2
Clc1cccc2ccc(Nc3ccc4c(c3)CCC4)nc12 [Compound 4, 8-Chloro-N-(2,3-dihydro-1H-inden-5-yl)quinolin-2-amine]	5.4
CC(=O)N1CCc2cc(Nc3ccc4cccc(Cl)c4n3)ccc21 [Compound 5, 1-(5-((8-Chloroquinolin-2-yl)amino)indolin-1-yl)ethan-1-one]	1.4
Clc1cccc2ccc(Nc3ccc4c(c3)OCCO4)nc12 [Compound 6, 8-Chloro-N-(2,3-dihydrobenzo[b][1,4]dioxin-6-yl)quinolin-2-amine]	2.7
Clc1cccc2ccc(Nc3ccc4c(c3)CCCC4)nc12 [Compound 7, 8-Chloro-N-(5,6,7,8-tetrahydronaphthalen-2-yl)quinolin-2-amine]	5.2
FC1(F)Oc2ccc(Nc3ccc4cccc(Cl)c4n3)cc2OC1(F)F [Compound 8, 8-Chloro-N-(2,2,3,3-tetrafluoro-2,3-dihydrobenzo[b][1,4]dioxin-6-yl)quinolin-2-amine]	5.4
Clc1cccc2ccc(Nc3cnc4c(c3)OCO4)nc12 [Compound 9, N-(8-Chloroquinolin-2-yl)-[1,3]dioxolo[4,5-b]pyridin-6-amine]	2.4
Clc1cccc2ccc(Nc3ccc4c(c3)OCO4)nc12 [Compound 10, N-(Benzo[d][1,3]dioxol-5-yl)-8-chloroquinolin-2-amine]	2.1
[2H]C1([2H])Oc2ccc(Nc3ccc4cccc(Cl)c4n3)cc2O1 [Compound 11, N-(Benzo[d][1,3]dioxol-5-yl-2,2-d2)-8-chloroquinolin-2-amine]	2.4
CC1(C)Oc2ccc(Nc3ccc4cccc(Cl)c4n3)cc2O1 [Compound 12, 8-Chloro-N-(2,2-dimethylbenzo[d][1,3]dioxol-5-yl)quinolin-2-amine]	1.8
CC1(C)Cc2cc(Nc3ccc4cccc(Cl)c4n3)ccc2O1 [Compound 13, 8-Chloro-N-(2,2-dimethyl-2,3-dihydrobenzofuran-5-yl)quinolin-2-amine]	2.8
FC1(F)Oc2ccc(Nc3ccc4c5c(cc(Cl)c4n3)CCC5)cc2O1 [Compound 14, 5-Chloro-N-(2,2-difluorobenzo[d][1,3]dioxol-5-yl)-8,9-dihydro-7H-cyclopenta[f]quinolin-3-amine]	1.5
Cc1ccc2ccc(Nc3ccc4c(c3)OC(F)(F)O4)nc2c1Cl [Compound 15, 8-Chloro-N-(2,2-difluorobenzo[d][1,3]dioxol-5-yl)-7-methylquinolin-2-amine]	5.7
COc1ccc2ccc(Nc3ccc4c(c3)OC(F)(F)O4)nc2c1Cl [Compound 16, 8-Chloro-N-(2,2-difluorobenzo[d][1,3]dioxol-5-yl)-7-methoxyquinolin-2-amine]	3.9
FC1(F)Oc2ccc(Nc3ccc4ccc(Cl)c(Cl)c4n3)cc2O1 [Compound 17, 7,8-Dichloro-N-(2,2-difluorobenzo[d][1,3]dioxol-5-yl)quinolin-2-amine]	5.9
Cc1cc(Cl)c2nc(Nc3ccc4c(c3)OC(F)(F)O4)ccc2c1 [Compound 18, 8-Chloro-N-(2,2-difluorobenzo[d][1,3]dioxol-5-yl)-6-methylquinolin-2-amine]	2.7
FC1(F)Oc2ccc(Nc3ccc4cc(Cl)cc(Cl)c4n3)cc2O1 [Compound 20, 6,8-Dichloro-N-(2,2-difluorobenzo[d][1,3]dioxol-5-yl)quinolin-2-amine]	5
O=C(O)[C@H]1O[C@@H](N(c2ccc3c(c2)OCO3)c2ccc3cccc(Cl)c3n2)[C@H](O)[C@@H](O)[C@@H]1O [Compound 21, (2S,3S,4S,5R,6R)-6-(Benzo[d][1,3]dioxol-5-yl(8-chloroquinolin-2-yl)amino)-3,4,5-trihydroxytetrahydro-2H-pyran-2-carboxylic acid]	1.9
O=C(O)[C@H]1O[C@@H](N(c2ccc3c(c2)OCCO3)c2ccc3cccc(Cl)c3n2)[C@H](O)[C@@H](O)[C@@H]1O [Compound 22, (2S,3S,4S,5R,6R)-6-((8-Chloroquinolin-2-yl)(2,3-dihydrobenzo[b][1,4]dioxin-6-yl)amino)-3,4,5-trihydroxytetrahydro-2H-pyran-2-carboxylic acid]	1.7
Cc1ccc(Cl)c2nc(Nc3ccc4c(c3)OC(F)(F)O4)ccc12 [Compound 23, 8-Chloro-N-(2,2-difluorobenzo[d][1,3]dioxol-5-yl)-5-methylquinolin-2-amine]	2.3
COc1ccc(Cl)c2nc(Nc3ccc4c(c3)OC(F)(F)O4)ccc12 [Compound 24, 8-Chloro-N-(2,2-difluorobenzo[d][1,3]dioxol-5-yl)-5-methoxyquinolin-2-amine]	3
FC1(F)Oc2ccc(Nc3ccc4c(Cl)ccc(Cl)c4n3)cc2O1 [Compound 25, 5,8-Dichloro-N-(2,2-difluorobenzo[d][1,3]dioxol-5-yl)quinolin-2-amine]	6.7
N#Cc1cc(Cl)c2nc(Nc3ccc4c(c3)OC(F)(F)O4)ccc2c1 [Compound 26, 8-Chloro-2-((2,2-difluorobenzo[d][1,3]dioxol-5-yl)amino)quinoline-6-carbonitrile]	2.4

From patent US20240327388A1, “QUINOLINAMINE COMPOUND, PREPARATION METHOD THEREFOR AND APPLICATION THEREOF IN PHARMACEUTICALS” (JIANGSU HENGRUI PHARMACEUTICALS CO., LTD., priority 2021, published 2024)
